Test results as given in patent US12612397B2, “Methods and compositions for modulating splicing” (Skyhawk Therapeutics, Inc., priority 2019, dated 2026).

Tests used:
[1] = system: MDR1-MDCK cell monolayers; settings: dog, MDCK-MDR1, 120 min, 5 μM, pH 7.4
Protocol: (§1) The permeability of compounds is assessed for BBB penetration potential by use of an MDCK-MDR1 assay (Catalog EA203) performed by Absorption Systems, Exton PA.
(§2) MDR1-MDCK cell monolayers are grown to confluence on collagen-coated, microporous membranes in 12-well assay plates. The permeability assay buffer is Hanks' balanced salt solution containing 10 mM HEPES and 15 mM glucose at a pH of 7.4. The buffer in the receiver chamber also contained 1% bovine serum albumin. The dosing solution concentration is 5 μM of test article in the assay buffer. Cell monolayers are dosed on the apical side (A-to-B) or basolateral side (B-to-A) and incubated at 37° C. with 5% CO2 in a humidified incubator. Samples are taken from the donor and receiver chambers at 120 minutes. Each determination is performed in duplicate. The flux of lucifer yellow is also measured post-experimentally for each monolayer to ensure no damage is inflicted to the cell monolayers during the flux period. All samples are assayed by LC-MS/MS using electrospray ionization.
(§3) Efflux ratio (ER) is defined as Papp (B-to-A)/Papp (A-to-B).
(§4) • Column: Waters ACQUITY UPLC BEH Phenyl 30×2.1 mm, 1.7 μm • M.P. Buffer: 25 mM ammonium formate buffer, pH 3.5 • Aqueous Reservoir (A): 90% water, 10% buffer • Organic Reservoir (B): 90% acetonitrile, 10% buffer • Flow Rate: 0.7 mL/minute Gradient Program:
(§5) • Total Run Time: 1.00 minute • Autosampler: 2 μL injection volume • Wash1: water/methanol/2-propanol:1/1/1; with 0.2% formic acid • Wash2: 0.1% formic acid in water

SMN protein = SMN protein assay (MSD) in SMA patient fibroblasts (GM03813); assay type: cell-based, human; settings: SMN protein by MSD, SMA patient fibroblasts GM03813, 48 hours
Protocol: Compounds were tested on spinal muscular atrophy (SMA) patient fibroblasts (GM03813, Coriell) at doses ranging from 2.5 μM to 0.6 nM. 7000 cells/well were seeded in 96-well plates. Compounds were incubated for 48 hours and the cells were lysed with 100 μL of lysis buffer. 20 μL of lysate was used for SMN protein measurement by Mesoscale Discovery (MSD) assay developed by PharmOptima (Michigan). A standard curve prepared with SMN protein ranging from 1 μg/ml to 19.5 pg/ml was used in each MSD plate to calculate the absolute SMN protein amount in each sample.

MDR1 = test: in vitro; settings: dog, MDCK-MDR1, pH 7.4
Protocol: as §1, §2, §3, §4, §5

SMN FL = test: Quantitative splicing assay (SMN) in SMA patient fibroblasts (GM03813); assay type: cell-based; settings: Homo sapiens, Fibroblast; SMA patient fibroblasts GM03813, 24 h, qPCR
Protocol: Spinal muscular atrophy (SMA) patient fibroblasts (GM03813, Coriell) are plated in 96-well plates at 50,000 cells/well. Immediately after plating, cells are dosed with compounds for 24 h at concentrations ranging from 2.5 μM to 0.6 nM (0.1% DMSO). Treated cells are lysed and cDNA synthesized using the Fast Advanced Cells-to-Ct kit (Thermofisher A35378) according to the manufacturer's instructions. 2 μL of each cDNA are used in qPCR reactions. The qPCR reactions are prepared in 384-well plates in 10 μL volume, using TaqMan™ Fast Advanced Master Mix (ThermoFisher; 4444965) with primers and probes shown in the table below. Reactions are run in a Quant Studio 6 qPCR instrument with default settings.

CN(c1ncc(-c2ccc(-c3cnn(C)c3)cc2O)nn1)[C@H]1C[C@@H]2CCC[C@@H](N2)[C@H]1F (single isomer, unassigned) [Compound 2B]
MDCK-MDR1: % Recov A-B [1]: 69%
MDCK-MDR1: % Recov B-A [1]: 83%
EC50 (SMN protein): 16 to 50 nM
Papp A→B at 120 min, 5 μM (MDR1): 6.89 ×10⁻⁶ cm/s
Papp B→A at 120 min, 5 μM (MDR1): 32.9 ×10⁻⁶ cm/s
efflux ratio at 120 min, 5 μM (MDR1): 5

CN(C)C(=O)c1cc2cc(O)c(-c3cnc(N(C)[C@H]4C[C@@H]5CC[C@@H](N5)[C@H]4F)nn3)cc2o1 (single isomer, unassigned) [Compound 9B]
MDCK-MDR1: % Recov A-B [1]: 88%
MDCK-MDR1: % Recov B-A [1]: 97%
Papp A→B at 120 min, 5 μM (MDR1): 2.4 ×10⁻⁶ cm/s
Papp B→A at 120 min, 5 μM (MDR1): 58.5 ×10⁻⁶ cm/s
efflux ratio at 120 min, 5 μM (MDR1): 24

CN(c1ncc(-c2cc3ccncc3s2)nn1)[C@H]1C[C@@H]2CC[C@@H](N2)[C@H]1F (single isomer, unassigned) [Compound 8B]
MDCK-MDR1: % Recov A-B [1]: 79%
MDCK-MDR1: % Recov B-A [1]: 81%
EC50 (SMN protein): 501 to 10000 nM
Papp A→B at 120 min, 5 μM (MDR1): 12.9 ×10⁻⁶ cm/s
Papp B→A at 120 min, 5 μM (MDR1): 49.6 ×10⁻⁶ cm/s
efflux ratio at 120 min, 5 μM (MDR1): 4

CN(c1ncc(-c2ccc(-c3cn[nH]c3)cc2O)nn1)[C@@H]1C[C@H]2CC[C@H](N2)[C@@H]1F (single isomer, unassigned) [Compound 1A]
EC50 (SMN FL): 0.01 to 15 nM
MDCK-MDR1: % Recov A-B [1]: 86%
MDCK-MDR1: % Recov B-A [1]: 89%
EC50 (SMN protein): 16 to 50 nM
Papp A→B at 120 min, 5 μM (MDR1): 3.47 ×10⁻⁶ cm/s
Papp B→A at 120 min, 5 μM (MDR1): 51.6 ×10⁻⁶ cm/s
efflux ratio at 120 min, 5 μM (MDR1): 15

CN(c1ncc(-c2ccc(-c3cn[nH]c3)cc2O)nn1)[C@H]1C[C@@H]2CC[C@@H](N2)[C@H]1F (single isomer, unassigned) [Compound 1B]
EC50 (SMN FL): 101 to 500 nM
MDCK-MDR1: % Recov A-B [1]: 78%
MDCK-MDR1: % Recov B-A [1]: 90%
EC50 (SMN protein): 0.01 to 15 nM
Papp A→B at 120 min, 5 μM (MDR1): 2.95 ×10⁻⁶ cm/s
Papp B→A at 120 min, 5 μM (MDR1): 33.2 ×10⁻⁶ cm/s
efflux ratio at 120 min, 5 μM (MDR1): 11

CN(c1ncc(-c2cc3ccncc3s2)nn1)[C@@H]1C[C@H]2CC[C@H](N2)[C@@H]1F (single isomer, unassigned) [Compound 8A]
MDCK-MDR1: % Recov A-B [1]: 87%
MDCK-MDR1: % Recov B-A [1]: 93%
EC50 (SMN protein): 501 to 10000 nM
Papp A→B at 120 min, 5 μM (MDR1): 13.5 ×10⁻⁶ cm/s
Papp B→A at 120 min, 5 μM (MDR1): 37.3 ×10⁻⁶ cm/s
efflux ratio at 120 min, 5 μM (MDR1): 3

CN(C)C(=O)c1cc2cc(O)c(-c3cnc(N(C)[C@@H]4C[C@H]5CC[C@H](N5)[C@@H]4F)nn3)cc2o1 (single isomer, unassigned) [Compound 9A]
MDCK-MDR1: % Recov A-B [1]: 92%
MDCK-MDR1: % Recov B-A [1]: 100%
Papp A→B at 120 min, 5 μM (MDR1): 2.55 ×10⁻⁶ cm/s
Papp B→A at 120 min, 5 μM (MDR1): 61.2 ×10⁻⁶ cm/s
efflux ratio at 120 min, 5 μM (MDR1): 24

CN(c1ncc(-c2ccc(-c3cnn(C)c3)cc2O)nn1)[C@@H]1C[C@H]2CCC[C@H](N2)[C@@H]1F (single isomer, unassigned) [Compound 2A]
MDCK-MDR1: % Recov A-B [1]: 81%
MDCK-MDR1: % Recov B-A [1]: 84%
EC50 (SMN protein): 51 to 100 nM
Papp A→B at 120 min, 5 μM (MDR1): 4.48 ×10⁻⁶ cm/s
Papp B→A at 120 min, 5 μM (MDR1): 30.3 ×10⁻⁶ cm/s
efflux ratio at 120 min, 5 μM (MDR1): 7
